Measured values taken from the Kinase Knowledgebase extract (Sharma et al. 2016).

Molecular target: PIK3CA (human) (UniProt P42336)
Assay: Assessment of PI3KCA Kinase Activity

PIK3CA (human), sequence (P42336 whole entry, looked up): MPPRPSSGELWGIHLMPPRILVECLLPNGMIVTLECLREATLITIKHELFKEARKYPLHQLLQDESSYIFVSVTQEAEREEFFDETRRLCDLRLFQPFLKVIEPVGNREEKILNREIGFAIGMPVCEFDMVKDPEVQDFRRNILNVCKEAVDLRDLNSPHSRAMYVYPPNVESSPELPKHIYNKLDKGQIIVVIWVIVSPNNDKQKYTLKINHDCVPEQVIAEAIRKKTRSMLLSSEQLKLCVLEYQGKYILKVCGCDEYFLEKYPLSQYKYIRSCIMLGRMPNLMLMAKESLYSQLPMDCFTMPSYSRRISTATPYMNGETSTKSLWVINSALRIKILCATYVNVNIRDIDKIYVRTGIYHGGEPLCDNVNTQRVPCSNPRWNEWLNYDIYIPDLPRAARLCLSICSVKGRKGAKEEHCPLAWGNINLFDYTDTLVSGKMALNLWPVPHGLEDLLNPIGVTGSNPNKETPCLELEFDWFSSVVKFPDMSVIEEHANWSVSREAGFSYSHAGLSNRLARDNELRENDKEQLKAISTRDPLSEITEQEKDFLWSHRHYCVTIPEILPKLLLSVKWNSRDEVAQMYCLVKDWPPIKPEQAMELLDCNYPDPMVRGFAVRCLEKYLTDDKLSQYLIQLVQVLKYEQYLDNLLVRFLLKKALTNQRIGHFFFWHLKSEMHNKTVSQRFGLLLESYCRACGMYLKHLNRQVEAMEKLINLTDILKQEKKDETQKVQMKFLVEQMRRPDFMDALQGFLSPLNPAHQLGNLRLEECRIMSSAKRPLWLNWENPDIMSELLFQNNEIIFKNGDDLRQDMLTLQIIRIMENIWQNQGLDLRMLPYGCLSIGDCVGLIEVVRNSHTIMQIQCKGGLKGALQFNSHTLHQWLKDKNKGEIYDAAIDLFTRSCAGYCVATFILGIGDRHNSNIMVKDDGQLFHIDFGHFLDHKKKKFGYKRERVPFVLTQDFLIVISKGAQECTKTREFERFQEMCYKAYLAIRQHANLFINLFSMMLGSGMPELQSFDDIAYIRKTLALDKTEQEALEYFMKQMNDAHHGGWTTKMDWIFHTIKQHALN

Row | IC50 [nM] | Structure (SMILES)
1 | 100 to 1000 | CC(C)(C)OC(=O)Nc1cc(-c2sc(-c3nnc[nH]3)c(-c3ccc(Cl)cc3Cl)c2C#N)ccn1
2 | 100 to 1000 | N#Cc1c(-c2ccnc(NC(=O)c3cccnc3)c2)sc(-c2nnc[nH]2)c1-c1ccc(Cl)cc1Cl
3 | 100 to 1000 | Clc1cc(-c2nc(-c3ccccc3)c(-c3nnc[nH]3)s2)ccn1
4 | 100 to 1000 | CC(=O)Nc1cc(-c2nc(-c3ccc(Cl)cc3Cl)c(-c3nc(C#N)c[nH]3)s2)ccn1
5 | < 100 | CCOc1nc(-c2ccnc(NC(=O)c3ccno3)c2)sc1-c1nnc[nH]1
6 | 100 to 1000 | C[C@H](O)C(=O)Nc1cc(-c2sc(-c3nnc[nH]3)c(-c3ccc(Cl)cc3Cl)c2C#N)ccn1
7 | < 100 | CC(C)(C)OC(=O)Nc1cc(-c2sc(-c3ncc[nH]3)c(-c3ccc(Cl)cc3Cl)c2C#N)ccn1
8 | 100 to 1000 | Cc1cc(C(=O)Nc2cc(-c3sc(-c4nnc[nH]4)c(-c4ccc(Cl)cc4Cl)c3C#N)ccn2)no1
9 | < 100 | COC(=O)Nc1cc(-c2nc(-c3ccc(Cl)cc3Cl)c(-c3nnc(N)[nH]3)s2)ccn1
10 | 100 to 1000 | CC(=O)Nc1cc(-c2nc(-c3cccc(Cl)c3)c(-c3ncc[nH]3)s2)ccn1
11 | 100 to 1000 | CC(=O)Nc1cc(-c2sc(-c3nccn3Cc3cccnc3)c(-c3ccc(Cl)cc3Cl)c2C#N)ccn1
12 | 100 to 1000 | N#Cc1c(-c2ccnc(NC(=O)c3cnccn3)c2)sc(-c2nnc[nH]2)c1-c1ccc(Cl)cc1Cl
13 | < 100 | N#Cc1c(-c2ccnc(Nc3nccs3)c2)sc(-c2ncc[nH]2)c1-c1ccc(Cl)cc1Cl
14 | < 100 | O=c1ccc2c(-c3nc(-c4ccc(Cl)cc4Cl)c(-c4ncc[nH]4)s3)ccnc2[nH]1
15 | < 100 | COc1ccc(-c2nc(-c3ccnc(NC(C)=O)c3)sc2-c2ncc[nH]2)c(Cl)c1
16 | < 100 | CC(=O)Nc1cc(-c2sc(-c3nnc(Br)[nH]3)c(-c3ccc(Cl)cc3Cl)c2C#N)ccn1
17 | < 100 | CC(=O)Nc1cc(-c2sc(-c3ncc[nH]3)c(-c3ccc(Cl)cc3Cl)c2C#N)ccn1
18 | < 100 | N#Cc1c(-c2ccnc(NC(=O)C3CC3)c2)sc(-c2nnc[nH]2)c1-c1ccc(Cl)cc1Cl
19 | < 100 | CC(=O)Nc1cc(-c2nc(-c3ccc(Cl)c(Cl)c3)c(-c3ncc[nH]3)s2)ccn1
20 | 100 to 1000 | N#Cc1c(-c2ccnc(NS(=O)(=O)c3ccccc3)c2)sc(-c2nnc[nH]2)c1-c1ccc(Cl)cc1Cl
21 | < 100 | COCCNc1nccc(-c2sc(-c3nnc[nH]3)c(-c3ccc(Cl)cc3Cl)c2C#N)n1
22 | < 100 | COC[C@H]1CCCN1CCC(=O)Nc1cc(-c2nc(-c3ccccc3)c(-c3nnc[nH]3)s2)ccn1
23 | < 100 | O=C(Nc1cc(-c2cc(-c3ccc(Cl)cc3Cl)c(-c3ncc[nH]3)s2)ccn1)C1CC1

Row | IC50 [nM] | Structure (SMILES)
24 | 100 to 1000 | CCOc1nc(-c2ccnc(NC(=O)c3ccc(F)cc3)c2)sc1-c1nnc[nH]1
25 | < 100 | N#Cc1c(-c2ccnc(NC(N)=O)c2)sc(-c2ccn[nH]2)c1-c1ccc(Cl)cc1Cl
26 | < 100 | N#Cc1c(-c2ccnc(N)n2)sc(-c2nnc[nH]2)c1-c1ccc(Cl)cc1Cl
27 | < 100 | CC(=O)Nc1cc(-c2nc(-c3cc(CO)ccc3Cl)c(-c3ncc[nH]3)s2)ccn1
28 | < 100 | N#Cc1c(-c2ccnc(NCCCO)n2)sc(-c2nnc[nH]2)c1-c1ccc(Cl)cc1Cl
29 | < 100 | N#Cc1c(-c2ccnc(N)c2)sc(-c2nnc[nH]2)c1-c1ccc(Cl)cc1Cl
30 | < 100 | CC(=O)Nc1cc(-c2nc(-c3ccc(F)cc3F)c(-c3ncc[nH]3)s2)ccn1
31 | 100 to 1000 | N#Cc1c(-c2ccnc(NC(=O)CCc3ccccc3)c2)sc(-c2nnc[nH]2)c1-c1ccc(Cl)cc1Cl
32 | < 100 | N#Cc1c(-c2ccnc(NC(N)=O)c2)sc(-c2nnc[nH]2)c1-c1ccc(Cl)cc1Cl
33 | < 100 | COCCCNc1nccc(-c2sc(-c3nnc[nH]3)c(-c3ccc(Cl)cc3Cl)c2C#N)n1
34 | < 100 | CC(C)CC(=O)Nc1cc(-c2sc(-c3ncc[nH]3)c(-c3ccc(Cl)cc3Cl)c2C#N)ccn1
35 | < 100 | CC(=O)Nc1cc(-c2sc(-c3cnc[nH]3)c(-c3ccc(Cl)cc3Cl)c2C#N)ccn1
36 | 100 to 1000 | CCOc1nc(-c2ccnc(NC(=O)CC(C)C)c2)sc1-c1nnc[nH]1
37 | 100 to 1000 | CC(=O)Nc1cc(-c2sc(-c3nccn3C)c(-c3ccc(Cl)cc3Cl)c2C#N)ccn1
38 | < 100 | CC(=O)Nc1cc(-c2sc(-c3ccn[nH]3)c(-c3ccc(Cl)cc3Cl)c2C#N)ccn1
39 | < 100 | N#Cc1c(-c2ccnc(N)c2)sc(-c2ncc[nH]2)c1-c1ccc(Cl)cc1Cl
40 | 100 to 1000 | CCCC(=O)Nc1cc(-c2nc(OCC)c(-c3nnc[nH]3)s2)ccn1
41 | 100 to 1000 | N#Cc1c(-c2nc(N)ncc2Cl)sc(-c2nnc[nH]2)c1-c1ccc(Cl)cc1Cl
42 | < 100 | CC(=O)Nc1cc(-c2nc(-c3ccccc3Cl)c(-c3ncc[nH]3)s2)ccn1
43 | < 100 | N#Cc1c(-c2ccnc(N)n2)sc(C(N)=O)c1-c1ccc(Cl)cc1Cl
44 | 100 to 1000 | CCOc1nc(-c2ccnc(NC(=O)c3ccc(OC)cc3)c2)sc1-c1nnc[nH]1
45 | 100 to 1000 | O=C(CCN1CCOCC1)Nc1cc(-c2nc(-c3ccccc3)c(-c3nnc[nH]3)s2)ccn1

Continued, compound first:

Row | Structure (SMILES) | IC50 [nM]
46 | Cc1nn2ccc(OCc3ccccc3)cc2c1-c1nc(-c2ccccc2)c(-c2nnc[nH]2)s1 | < 100
47 | COc1cccc(F)c1-c1ccc2nc(C)c(-c3nc(-c4ccccc4)c(-c4nc[nH]n4)s3)n2c1 | 100 to 1000
48 | Cc1nc2ccc(CNCCCN)cn2c1-c1nc(-c2ccccc2)c(-c2nnc[nH]2)s1 | < 100
49 | C=Cc1ccc2nc(C)c(-c3nc(-c4ccccc4)c(-c4nc[nH]n4)s3)n2c1 | < 100
50 | Cc1nn2ccccc2c1-c1cc(-c2ccccc2)c(-c2nnc[nH]2)s1 | < 100
51 | Cc1nn2ccc(OCCN3CCCCC3)cc2c1-c1nc(-c2ccccc2)c(-c2nnc[nH]2)s1 | < 100
52 | CCOc1nc(-c2c(C)nn3ccccc23)sc1-c1nnc[nH]1 | < 100
53 | Cc1nn2ccccc2c1-c1nc(-c2ccccc2)c(-c2nnc[nH]2)s1 | < 100
54 | Cc1nn2ccccc2c1-c1nc(N(C)c2ccc(Cl)cc2)c(-c2nnc[nH]2)s1 | < 100
55 | Cc1nn2ccccc2c1-c1nc(-c2ccc(N3CCNCC3)nc2)c(-c2nc[nH]n2)s1 | 100 to 1000
56 | CC(=O)N1CCC(Oc2ccn3nc(C)c(-c4nc(-c5ccccc5)c(-c5nc[nH]n5)s4)c3c2)CC1 | < 100
57 | Cc1nc2ccc(CCN)cn2c1-c1nc(-c2ccccc2)c(-c2nnc[nH]2)s1 | < 100
58 | Cc1nn2ccc(N3CCOCC3)cc2c1-c1nc(-c2ccccc2)c(-c2nc[nH]n2)s1 | < 100
59 | Cc1nn2ccc(OCc3ccc(C(F)(F)F)nc3)cc2c1-c1nc(-c2ccccc2)c(-c2nc[nH]n2)s1 | < 100
60 | CC(=O)Nc1cc(-c2nc(NC(C)=O)c(-c3ncc[nH]3)s2)ccn1 | 100 to 1000
61 | Cc1nc2ccc(CN3CC[C@H](N)C3)cn2c1-c1nc(-c2ccccc2)c(-c2nnc[nH]2)s1 | < 100
62 | CC(=O)N1CCN(CCOc2ccn3nc(C)c(-c4nc(-c5ccccc5)c(-c5nc[nH]n5)s4)c3c2)CC1 | < 100
63 | Cc1nn2ccccc2c1-c1nc(-c2ccc(CN)cc2)c(-c2nc[nH]n2)s1 | 100 to 1000
64 | Cc1nn2ccccc2c1-c1nc(-c2ccc(F)cc2)c(-c2nnc[nH]2)s1 | < 100
65 | Cc1nn2ccccc2c1-c1nc(-c2ccccc2F)c(-c2nnc[nH]2)s1 | < 100
66 | COC(=O)c1ccc(-c2nc(-c3ccnc(NC(C)=O)c3)sc2-c2ncc[nH]2)cc1 | 100 to 1000
67 | Cc1nn2ccsc2c1-c1nc(-c2ccccc2)c(-c2cocn2)s1 | 100 to 1000
68 | CC(=O)Nc1cc(-c2nc(-c3ccc(CO)cc3)c(-c3ncc[nH]3)s2)ccn1 | 100 to 1000
69 | Cc1nn2ccc(OCCNC(=O)C(C)(C)N)cc2c1-c1nc(-c2ccccc2)c(-c2nc[nH]n2)s1 | < 100
70 | CCNc1cc(-c2nc(-c3cc(CCN)ccc3Cl)c(-c3ncc[nH]3)s2)ccn1 | 100 to 1000

Row | Structure (SMILES) | IC50 [nM]
71 | COc1cccc(F)c1-c1nc(-c2c(C)nn3ccc(OCCN4CCOCC4)cc23)sc1-c1nc[nH]n1 | < 100
72 | Cc1nn2ccc(OCCN3CCC(F)CC3)cc2c1-c1nc(-c2ccccc2)c(-c2nc[nH]n2)s1 | < 100
73 | Cc1nc2ccc(CNCCN)cn2c1-c1nc(-c2ccccc2)c(-c2nnc[nH]2)s1 | < 100
74 | CC(C)(C)Nc1nc2c(-c3cc(-c4ccc(Cl)cc4Cl)c(-c4ncc[nH]4)s3)ncnc2s1 | < 100
75 | CCOc1cccc(F)c1-c1nc(-c2c(C)nn3ccccc23)sc1-c1nc[nH]n1 | 100 to 1000
76 | Cc1nn2ccc(OCCNC(=O)c3cn(C)cn3)cc2c1-c1nc(-c2ccccc2)c(-c2nc[nH]n2)s1 | < 100
77 | Cc1nn2ccccc2c1-c1nc(-c2ccccc2OCc2ccccc2)c(-c2nc[nH]n2)s1 | 100 to 1000
78 | COc1ccc(-c2ccc3nc(C)c(-c4nc(-c5ccccc5)c(-c5nc[nH]n5)s4)n3c2)cc1OC | < 100
79 | Cc1nn2ccsc2c1-c1nc(-c2ccccc2)c(-c2nnn[nH]2)s1 | 100 to 1000
80 | Cc1nn2ccc(OCCN3CCOCC3)cc2c1-c1nc(-c2ccccc2F)c(-c2nc[nH]n2)s1 | < 100
81 | Cc1nn2ccccc2c1-c1nc(-c2ccc[nH]2)c(-c2nc[nH]n2)s1 | 100 to 1000
82 | Cc1nn2ccccc2c1-c1nc(C2CCOCC2)c(-c2nnc[nH]2)s1 | < 100
83 | Cc1nn2ccc(-c3cnn(C)c3)cc2c1-c1nc(-c2ccccc2)c(-c2nc[nH]n2)s1 | < 100
84 | Cc1cccc(C)c1-c1nc(-c2c(C)nn3ccccc23)sc1-c1nc[nH]n1 | < 100
85 | Cc1nn2ccccc2c1-c1nc(-c2cnn(CCN3CCOCC3)c2)c(-c2nc[nH]n2)s1 | 100 to 1000
86 | Cc1nn2ccccc2c1-c1nc(OCc2ccccc2)c(-c2nnc[nH]2)s1 | < 100
87 | CC(=O)Nc1cc(-c2nc(-c3ccccc3)c(-c3ncc[nH]3)s2)ccn1 | 100 to 1000
88 | Cc1nc2ccc(CN(C)CCN)cn2c1-c1nc(-c2ccccc2)c(-c2nnc[nH]2)s1 | < 100
89 | COc1cncc(-c2nc(-c3ccnc(NC(C)=O)c3)sc2-c2ncc[nH]2)c1 | 100 to 1000
90 | CC(=O)Nc1cc(-c2nc(-c3ccc(C(F)(F)F)cc3)c(-c3ncc[nH]3)s2)ccn1 | < 100
91 | Cc1nc2scc(C)n2c1-c1nc(-c2ccccc2)c(-c2nc[nH]n2)s1 | 100 to 1000
92 | Cc1nn2ccccc2c1-c1nc(-c2ccccc2C(F)(F)F)c(-c2nnc[nH]2)s1 | < 100
93 | Cc1nn2ccccc2c1-c1nc(-c2cc(F)ccc2F)c(-c2nc[nH]n2)s1 | < 100
94 | Cc1nn2ccc(OCCNC(=O)C(C)(C)C)cc2c1-c1nc(-c2ccccc2)c(-c2nc[nH]n2)s1 | < 100
